Measured values from patent US7060822B1, “2-pyrazolin-5-ones” (Abbott GmbH & Co. KG, priority 1999, dated 2006).

| Structure (SMILES) | melting point |
| --- | --- |
| O=C1NN=C(Cc2ccc(Cl)cc2)C1=Cc1ccc[nH]1 [Example 17, 3-(4-Chlorobenzyl)-4-[(pyrrol-2-yl)methylene]-2-pyrazolin-5-one] | 178 to 180 °C |
| CCOC1=NNC(=O)C1=Cc1cc2ccccc2[nH]1 [Example 324, 3-Ethoxy-4-[(indol-2-yl)methylene]-2-pyrazolin-5-one] | 265 to 267 °C |
| CC(C)OC1=NNC(=O)C1=Cc1ccc[nH]1 [Example 11, 3-Isopropoxy-4-[(pyrrol-2-yl)methylene]-2-pyrazolin-5-one] | 172 to 174 °C |
| O=C1NN=C(CCc2ccc(Cl)cc2)C1=Cc1ccc[nH]1 [Example 34, 3-(4-Chlorophenylethyl)-4-[(pyrrol-2-yl)methylene]-2-pyrazolin-5-one] | 193 to 194 °C |
| O=C1NN=C(CCc2ccc(O)cc2)C1=Cc1ccc[nH]1 [Example 27, 3-(4-Hydroxyphenylethyl)-4-[(pyrrol-2-yl)methylene]-2-pyrazolin-5-one] | 253 to 255 °C |
| Cc1cc(C)c(C=C2C(=O)NN=C2c2cccnc2)[nH]1 | 235 to 238 °C |
| Cc1[nH]c(C=C2C(=O)NN=C2C2CC2)c(C)c1C(=O)OCCN(C)C [Example 119, 3-Cyclopropyl-4-{[3,5-dimethyl-4-(2-dimethylaminoethyloxycarbonyl)pyrrol-2-yl]methylene}-2-pyrazolin-5-one] | 172 to 174 °C |
| Cc1[nH]c(C=C2C(=O)NN=C2c2cnccn2)c(C)c1C(=O)CCCl [Example 175, 4-{[4-(3-Chloropropionyl)-3,5-dimethylpyrrol-2-yl]methylene}-3-pyrazinyl-2-pyrazolin-5-one] | 213 °C (dec.) |
| Cc1[nH]c(C=C2C(=O)NN=C2c2cnccn2)c(C)c1CNC(=O)C(F)(F)F [Example 139, 4-[(3,5-Dimethyl-4-trifluoroacetamidomethylpyrrol-2-yl)methylene]-3-pyrazinyl-2-pyrazolin-5-one] | 302 to 305 °C |
| COc1ccc2[nH]c(C=C3C(=O)NN=C3OC(C)C)cc2c1 [Example 314, 3-Isopropoxy-4-[(5-methoxyindol-2-yl)methylene]-2-pyrazolin-5-one] | 219 to 220 °C |
| O=C1NN=C(C2CC2)C1=Cc1ncc[nH]1 [Example 365, 3-Cyclopropyl-4-[(imidazol-2-yl)methylene]-2-pyrazolin-5-one] | 264 to 266 °C |
| O=C1NN=C(CCc2ccccc2)C1=Cc1ccc[nH]1 [Example 12, 3-Phenylethyl-4-[(pyrrol-2-yl)methylene]-2-pyrazolin-5-one] | 145 to 147 °C |
| CCOC(=O)CC1=NNC(=O)C1=Cc1ccc[nH]1 [Example 53, 3-(Ethoxycarbonylmethyl)-4-[(pyrrol-2-yl)methylene]-2-pyrazolin-5-one] | 124 to 126 °C |
| CCc1c(C)[nH]c(C=C2C(=O)NN=C2c2ccccc2)c1C [Example 146, 4-[(3,5-Dimethyl-4-ethylpyrrol-2-yl)methylene]-3-phenyl-2-pyrazolin-5-one] | 274 to 275 °C |
| CCc1c(C)[nH]c(C=C2C(=O)NN=C2c2ccccn2)c1C [Example 125, 4-[(3,5-Dimethyl-4-ethylpyrrol-2-yl)methylene]-3-(2-pyridyl)-2-pyrazolin-5-one] | 184 to 186 °C |
| CCOC(=O)c1c[nH]c(C=C2C(=O)NN=C2OCC)c1C(=O)OCC [Example 147, 4-[(3,4-Di(ethoxycarbonyl)pyrrol-2-yl)methylene]-3-ethoxy-2-pyrazolin-5-one] | 132 to 134 °C |
| Cc1[nH]c(C=C2C(=O)NN=C2C2CC2)c(C)c1CCO [Example 184, 3-Cyclopropyl-4-{[3,5-Dimethyl-4-(2-hydroxyethyl)pyrrol-2-yl]methylene}-2-pyrazolin-5-one] | 244 to 246 °C |
| CC(C)OC1=NNC(=O)C1=Cc1ccc(C(=O)O)[nH]1 [Example 91, 4-[(5-Carboxypyrrol-2-yl)methylene]-3-isopropoxy-2-pyrazolin-5-one] | 235 to 237 °C |
| Cc1[nH]c(C=C2C(=O)NN=C2c2cnccn2)c(C)c1CN1CCCCC1 [Example 167, 4-[(3,5-Dimethyl-4-piperidinomethylpyrrol-2-yl)methylene]-3-pyrazinyl-2-pyrazolin-5-one] | 240 to 242 °C |
| Cc1n[nH]cc1C=C1C(=O)NN=C1OC(C)C [Example 362, 3-Isopropoxy-4-[(3-methylpyrazol-4-yl)methylene]-2-pyrazolin-5-one] | 228 to 230 °C |
| Cc1[nH]c(C=C2C(=O)NN=C2OC(C)C)c(C)c1C(=O)O [Example 83, 4-[(4-Carboxy-3,5-dimethylpyrrol-2-yl)methylene]-3-isopropoxy-2-pyrazolin-5-one] | > 300 °C |
| Cc1cc(C)c(C=C2C(=O)NN=C2c2ccco2)[nH]1 [Example 127, 4-[(3,5-dimethylpyrrol-2-yl)methylene]-3-(2-furyl)-2-pyrazolin-5-one] | 235 to 237 °C |
| CCOC(=O)c1c(C)[nH]c(C=C2C(=O)NN=C2c2cccc(N)c2)c1C [Example 162, 3-(3-Aminophenyl)-4-[(3,5-Dimethyl-4-ethoxycarbonylpyrrol-2-yl)methylene]-2-pyrazolin-5-one] | 214 to 216 °C |
| Cc1cc(C(C)C)c(C=C2C(=O)NN=C2c2cnccn2)[nH]1 [Example 197, 4-[(3-Isopropyl-5-methylpyrrol-2-yl)methylene]-3-pyrazinyl-2-pyrazolin-5-one] | 244 °C |
| CCOC(=O)c1c[nH]c(C=C2C(=O)NN=C2c2cnccn2)c1 [Example 136, 4-[(4-Ethoxycarbonylpyrrol-2-yl)methylene]-3-pyrazinyl-2-pyrazolin-5-one] | 155 to 157 °C |
| Cc1c[nH]c(C=C2C(=O)NN=C2c2cnccn2)c1C [Example 98, 4-[(3,4-dimethylpyrrol-2-yl)methylene]-3-pyrazinyl-2-pyrazolin-5-one] | 245 to 250 °C |
| O=C1NN=C(COc2ccc(Cl)cc2)C1=Cc1ccc[nH]1 [Example 5, 3-(4-Chlorophenyloxymethyl)-4-[(pyrrol-2-yl)methylene]-2-pyrazolin-5-one] | 218 to 222 °C |

Further lines, results first:

| melting point | Structure (SMILES) |
| --- | --- |
| 208 to 210 °C | O=C1NN=C(C2CC2)C1=Cc1ccc(-c2ccccc2)[nH]1 [Example 93, 3-Cyclopropyl-4-[(5-phenylpyrrol-2-yl)methylene]-2-pyrazolin-5-one] |
| 255 to 257 °C | Cc1ccc(NC2=NNC(=O)C2=Cc2c[nH]c3ccccc23)cc1 [Example 221, 4-[(Indol-3-yl)methylene]-3-(4-methylphenylamino)-2-pyrazolin-5-one] |
| 258 to 260 °C | CN(C)C1=NNC(=O)C1=Cc1c[nH]c2ccccc12 [Example 270, 3-Dimethylamino-4-[(indol-3-yl)methylene]-2-pyrazolin-5-one] |
| 300 to 302 °C | O=C1NN=C(c2ccc[nH]2)C1=Cc1c[nH]c2ccccc12 [Example 271, 4-[(Indol-3-yl)methylene]-3-(pyrrol-2-yl)-2-pyrazolin-5-one] |
| 300 to 302 °C | O=C1NN=C(C2CCC2)C1=Cc1c[nH]c2ncccc12 [Example 345, 4-[(7-Azaindol-3-yl)methylene]-3-cyclobutyl-2-pyrazolin-5-one] |
| > 300 °C | O=C1NN=C(CCc2ccc(C(=O)O)cc2)C1=Cc1cc2ccccc2[nH]1 [Example 320, 3-(4-Carboxyphenylethyl)-4-[(indol-2-yl)methylene]-2-pyrazolin-5-one] |
| 238 to 240 °C | O=C1NN=C(C2CC2)C1=Cc1cc2ccccc2[nH]1 [Example 311, 3-Cyclopropyl-4-[(indol-2-yl)methylene]-2-pyrazolin-5-one] |
| 288 to 292 °C | O=C1NN=C(c2c[nH]c3ccccc23)C1=Cc1c[nH]c2ccccc12 [Example 230, 3-(Indol-3-yl)-4-[(indol-3-yl)methylene]-2-pyrazolin-5-one] |
| 302 to 304 °C | Cc1cccc2c(C=C3C(=O)NN=C3CCc3ccccc3)c[nH]c12 [Example 246, 4-[(7-Methylindol-3-yl)methylene]-3-phenylethyl-2-pyrazolin-5-one] |
| 153 to 154 °C | Cc1ccc(CCC2=NNC(=O)C2=Cc2ccc[nH]2)cc1 [Example 29, 3-(4-Methylphenylethyl)-4-[(pyrrol-2-yl)methylene]-2-pyrazolin-5-one] |
| 210 to 212 °C | COC(=O)c1ccc(CCC2=NNC(=O)C2=Cc2cc3ccccc3[nH]2)cc1 [Example 309, 3-(4-Methoxycarbonylphenylethyl]-4-[(indol-2-yl)methylene]-2-pyrazolin-5-one] |
| 253 to 255 °C | CN(C)c1ccc(C=C2C(=O)NN=C2Cc2ccccc2)cc1 [Example 358, 3-Benzyl-4-[(4-dimethylaminophenyl)methylene]-2-pyrazolin-5-one] |
| 295 to 296 °C | O=C1NN=C(COc2ccc(-c3ccccc3)cc2)C1=Cc1c[nH]c2ccccc12 [Example 232, 4-[(Indol-3-yl)methylene]-3-(4-phenylphenyloxymethyl)-2-pyrazolin-5-one] |
| 288 to 290 °C | COc1ccc(NC2=NNC(=O)C2=Cc2ccc[nH]2)cc1 [Example 16, 3-(4-Methoxyphenylamino)-4-[(pyrrol-2-yl)methylene]-2-pyrazolin-5-one] |
| 274 to 277 °C | O=C1NN=C(Cc2ccc(Cl)cc2)C1=Cc1c[nH]c2ccccc12 [Example 223, 3-(4-Chlorobenzyl)-4-[(indol-3-yl)methylene]-2-pyrazolin-5-one] |
| 265 to 267 °C | COc1ccc(NC2=NNC(=O)C2=Cc2c[nH]c3ccccc23)cc1 [Example 222, 4-[(Indol-3-yl)methylene]-3-(4-methoxyphenylamino)-2-pyrazolin-5-one] |
| 230 to 232 °C | Cn1cc(C=C2C(=O)NN=C2c2cccnc2)c2ccccc21 [Example 275, 4-[(1-Methylindol-3-yl)methylene]-3-(3-pyridyl)-2-pyrazolin-5-one] |
| 265 to 268 °C | O=C1NN=C(COc2cccc(Cl)c2)C1=Cc1c[nH]c2ccccc12 [Example 229, 3-(3-Chlorophenyloxymethyl)-4-[(indol-3-yl)methylene]-2-pyrazolin-5-one] |
| 182 to 184 °C | O=C1NN=C(Cc2ccccc2)C1=Cc1ccc[nH]1 [Example 2, 3-Benzyl-4-[(pyrrol-2-yl)methylene]-2-pyrazolin-5-one] |
